# Target: CTD of SARS‐CoV‐2 N protein (Severe acute respiratory syndrome coronavirus 2, UniProt P0DTC9)
# Test: biochemical
# Format: binding
structure (smiles),measurement,value
Nc1ncnc2c1ncn2[C@@H]1O[C@H](COP(=O)(O)OP(=O)(O)OP(=O)(O)O)[C@@H](O)[C@H]1O [ATP],Kd,1490 ± 280 µM

# From article PMC8661809 (Protein Science : A Publication of the Protein Society, 2021)
